From patent publication US20100022491A1, “4-HYDROXY-2-OXO-2,3-DIHYDRO-1,3-BENZOTHIAZOL-7YL COMPOUNDS FOR MODULATION OF B2-ADRENORECEPTOR ACTIVITY” (ASTRAZENECA AB, priority 2006, published 2010)
Counter-ions that a name gives are not always drawn.

Molecular target: T1, Adrenergic β2 (Homo sapiens, UniProt P07550)
T1 construct: Adherent H292 cells were removed from tissue culture flasks; endogenous in cells; host or cells: H292 cells
Assay: Adrenergic β2 mediated cAMP production in H292 cells
Format: cell-based
Settings: for EC50: read-out: β2 pEC50 (converted); for β2 Int Act: Intrinsic Activity as a fraction relative to the maximum activity determined for formoterol
Method in brief: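 cAMP accumulation in adherent H292 cells, measured by AlphaScreen and calibrated with cAMP standards. Compounds incubated 60 min at room temperature after 10 min rolipram (final 300 μM; vehicle 1.6% DMSO). pEC50 and intrinsic activity, as a fraction of formoterol's maximum, from four-parameter logistic fit.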

[1] = H292 cells, cAMP by AlphaScreen, 60 minutes at room temperature, rolipram 300 μM

T1 sequence (P07550 whole entry): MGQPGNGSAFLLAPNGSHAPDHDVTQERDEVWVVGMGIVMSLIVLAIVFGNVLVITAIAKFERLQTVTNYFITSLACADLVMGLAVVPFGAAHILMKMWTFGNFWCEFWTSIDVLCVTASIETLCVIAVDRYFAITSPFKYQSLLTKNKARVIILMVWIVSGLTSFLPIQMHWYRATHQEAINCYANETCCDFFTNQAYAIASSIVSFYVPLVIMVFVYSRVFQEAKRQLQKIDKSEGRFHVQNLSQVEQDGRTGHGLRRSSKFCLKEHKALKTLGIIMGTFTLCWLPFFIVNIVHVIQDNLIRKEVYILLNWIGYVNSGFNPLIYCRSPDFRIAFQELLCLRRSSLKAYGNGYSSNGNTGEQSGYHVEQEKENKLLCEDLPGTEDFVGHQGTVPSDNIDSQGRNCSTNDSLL

EC50 [1]	β2 Int Act	SMILES	β2 pEC50 [1]
2.51 nM	0.98	CCCC[C@@H](C)N(CCNCCc1ccc(O)c2[nH]c(=O)sc12)C(=O)CCNCCc1ccccc1 [Example 101, N-(2-{[2-(4-Hydroxy-2-oxo-2,3-dihydro-1,3-benzothiazol-7-yl)ethyl]amino}ethyl)-N-[(1R)-1-methylpentyl]-N^3-(2-phenylethyl)-β-alaninamide bis-trifluoroacetic acid salt]	
3.98 nM	0.84	Cc1cccc(CCNCCC(=O)N(CCNCCc2ccc(O)c3[nH]c(=O)sc23)C2CCCCC2)c1 [Example 14, N-Cyclohexyl-N-(2-{[2-(4-hydroxy-2-oxo-2,3-dihydro-1,3-benzothiazol-7-yl)ethyl]amino}ethyl)-N^3-[2-(3-methylphenyl)ethyl]-β-alaninamide bis-trifluoroacetic acid salt]	
15.8 nM	0.84	C[C@H](CNCCC(=O)N(CCNCCc1ccc(O)c2[nH]c(=O)sc12)CC(C)(C)C)c1ccccc1 [Example 11, N-(2,2-Dimethylpropyl)-N-(2-{[2-(4-hydroxy-2-oxo-2,3-dihydro-1,3-benzothiazol-7-yl)ethyl]amino}ethyl)-N^3-[(2S)-2-phenylpropyl]-β-alaninamide bis-trifluoroacetic acid salt]	
6.31 nM	0.86	CC(CN(C(=O)CCNCCc1ccccc1)C1CCCCC1)NCCc1ccc(O)c2[nH]c(=O)sc12 (stereo not drawn) [Example 105, N-Cyclohexyl-N-(2-{[2-(4-hydroxy-2-oxo-2,3-dihydro-1,3-benzothiazol-7-yl)ethyl]amino}propyl)-N^3-(2-phenylethyl)-β-alaninamide bis-trifluoroacetic acid salt]	
3.98 nM	0.71	O=C(CCNCCc1cc(F)ccc1F)N(CCNCCc1ccc(O)c2[nH]c(=O)sc12)C1CCCCCC1 [Example 83, N^1-Cycloheptyl-N^3-[2-(2,5-difluorophenyl)ethyl]-N^1-(2-{[2-(4-hydroxy-2-oxo-2,3-dihydro-1,3-benzothiazol-7-yl)ethyl]amino}ethyl)-β-alaninamide bis-trifluoroacetic acid salt]	
3.98 nM	0.68	CC(C)(C)CN(CCNCCc1ccc(O)c2[nH]c(=O)sc12)C(=O)CCNCCc1cccc(Cl)c1 [Example 7, N^3-[2-(3-Chlorophenyl)ethyl]-N-(2,2-dimethylpropyl)-N-(2-{[2-(4-hydroxy-2-oxo-2,3-dihydro-1,3-benzothiazol-7-yl)ethyl]amino}ethyl)-β-alaninamide bis-trifluoroacetic acid salt]	
3.16 nM	0.92	O=C(CCNCCc1cccs1)N(CCNCCc1ccc(O)c2[nH]c(=O)sc12)C1CCCCCC1 [Example 52, N^1-Cycloheptyl-N^1-(2-{[2-(4-hydroxy-2-oxo-2,3-dihydro-1,3-benzothiazol-7-yl)ethyl]amino}ethyl)-N^3-[2-(2-thienyl)ethyl]-β-alaninamide bis-trifluoroacetic acid salt]	
3.98 nM	0.89	O=C(CCNCCc1ccc(Cl)s1)N(CCNCCc1ccc(O)c2[nH]c(=O)sc12)C1CCCCC1 [Example 72, N^3-[2-(5-Chloro-2-thienyl)ethyl]-N^1-cyclohexyl-N^1-(2-{[2-(4-hydroxy-2-oxo-2,3-dihydro-1,3-benzothiazol-7-yl)ethyl]amino}ethyl)-β-alaninamide bis-trifluoroacetic acid salt]	
7.94 nM	0.83	O=C(CCNCCc1ccc(Cl)cc1)N(CCNCCc1ccc(O)c2[nH]c(=O)sc12)C1CCOCC1 [Example 26, N^3-[2-(4-Chlorophenyl)ethyl]-N-(2-{[2-(4-hydroxy-2-oxo-2,3-dihydro-1,3-benzothiazol-7-yl)ethyl]amino}ethyl)-N-(tetrahydro-2H-pyran-4-yl)-β-alaninamide bis-trifluoroacetic acid salt]	
5.01 nM	0.85	O=C(CCNCCc1ccc(F)c(F)c1)N(CCNCCc1ccc(O)c2[nH]c(=O)sc12)C1CCCCC1 [Example 73, N^1-Cyclohexyl-N^3-[2-(3,4-difluorophenyl)ethyl]-N^1-(2-{[2-(4-hydroxy-2-oxo-2,3-dihydro-1,3-benzothiazol-7-yl)ethyl]amino}ethyl)-β-alaninamide bis-trifluoroacetic acid salt]	
10 nM	0.74	O=C(CCNCCc1ccc(F)c(F)c1)N(CCNCCc1ccc(O)c2[nH]c(=O)sc12)C1CCCCCC1 [Example 53, N^1-Cycloheptyl-N^1-[2-(3,4-difluorophenyl)ethyl]-N^1-(2-{[2-(4-hydroxy-2-oxo-2,3-dihydro-1,3-benzothiazol-7-yl)ethyl]amino}ethyl)-β-alaninamide bis-trifluoroacetic acid salt]	
1.58 nM	0.90	O=C(CCNCCc1ccccc1Cl)N(CCNCCc1ccc(O)c2[nH]c(=O)sc12)C1CCCCC1 [Example 17, N^3-[2-(2-Chlorophenyl)ethyl]-N-cyclohexyl-N-(2-{[2-(4-hydroxy-2-oxo-2,3-dihydro-1,3-benzothiazol-7-yl)ethyl]amino}ethyl)-β-alaninamide bis-trifluoroacetic salt]	
20 nM	0.70	CC(C)(CO)CN(CCNCCc1ccc(O)c2[nH]c(=O)sc12)C(=O)CCNCCc1cccc(Cl)c1Cl [Example 67, N^3-[2-(2,3-Dichlorophenyl)ethyl]-N^1-(3-hydroxy-2,2-dimethylpropyl)-N^1-(2-{[2-(4-hydroxy-2-oxo-2,3-dihydro-1,3-benzothiazol-7-yl)ethyl]amino}ethyl)-β-alaninamide bis-trifluoroacetic acid salt]	
		O=C(CCNCCc1ccc(Cl)c(Cl)c1)N(CCNCCc1ccc(O)c2[nH]c(=O)sc12)C1CCOCC1 [Example 94, N^3-[2-(3,4-Dichlorophenyl)ethyl]-N-(2-{[2-(4-hydroxy-2-oxo-2,3-dihydro-1,3-benzothiazol-7-yl)ethyl]amino}ethyl)-N-(tetrahydro-2H-pyran-4-yl)-β-alaninamide dihydrobromide salt]	8.1
3.98 nM	0.91	O=C(CCNCCc1ccc(F)cc1)N(CCNCCc1ccc(O)c2[nH]c(=O)sc12)C1CCCCC1 [Example 16, N-Cyclohexyl-N^3-[2-(4-fluorophenyl)ethyl]-N-(2-{[2-(4-hydroxy-2-oxo-2,3-dihydro-1,3-benzothiazol-7-yl)ethyl]amino}ethyl)-β-alaninamide bis-trifluoroacetic acid salt]	
31.6 nM	0.99	O=C(CCNCCc1ccccc1)N(CCNCCc1ccc(O)c2[nH]c(=O)sc12)C1Cc2ccccc2C1 [Example 41, N^1-(2,3-Dihydro-1H-inden-2-yl)-N^1-(2-{[2-(4-hydroxy-2-oxo-2,3-dihydro-1,3-benzothiazol-7-yl)ethyl]amino}ethyl)-N^3-(2-phenylethyl)-β-alaninamide bis-trifluoroacetic acid salt]	
10 nM	0.91	O=C(CCNC[C@H](O)c1ccccc1)N(CCNCCc1ccc(O)c2[nH]c(=O)sc12)C1CCCCC1 [Example 75, N^1-Cyclohexyl-N^1-(2-{[2-(4-hydroxy-2-oxo-2,3-dihydro-1,3-benzothiazol-7-yl)ethyl]amino}ethyl)-N^3-[(2R)-2-hydroxy-2-phenylethyl]-β-alaninamide bis-trifluoroacetic acid salt]	

SMILES	EC50 [1]	β2 Int Act	β2 pEC50 [1]
O=C(CCNCCc1ccccc1)N(CCNCCc1ccc(O)c2[nH]c(=O)sc12)C1CCCCCC1 [Example 23, N-Cycloheptyl-N-(2-{[2-(4-hydroxy-2-oxo-2,3-dihydro-1,3-benzothiazol-7-yl)ethyl]amino}ethyl)-N^3-(2-phenylethyl)-β-alaninamide bis-trifluoroacetic acid salt]	1 nM	0.85	
